Results reported in PubChem BioAssay AID1963978 (Molecular Pharmacology Branch, DTP, NCI, 2024).

System: 616215-338-R-J1-PDC spheroids with HUVEC/MSC, viability
Assay: Anticancer human tumor 616215-338-R-J1-PDC patient-derived colon adenocarcinoma cell line growth inhibition [PI3K]
Conditions: for IC50: curve of first compound; for viability, T/C: stronger effect = lower value
Procedure, shortened: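 Stroma-containing spheroids: tumor line, pooled-donor HUVEC, hMSC. Treatments: targeted agents with PI3K inhibitors. Dosing: clinically relevant, half-log spacing, 10 microM ceiling without known Cmax. Read-out: cell viability.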

[1] = second compound 0.00316 µM, first compound 0.0316 µM
[2] = second compound 0.00316 µM, first compound 0.1 µM
[3] = second compound 0.01 µM, first compound 0.0316 µM
[4] = second compound 0.01 µM, first compound 0.1 µM
[5] = second compound 0.0316 µM, first compound 0.0316 µM
[6] = second compound 0.0316 µM, first compound 0.1 µM
[7] = second compound 0.1 µM, first compound 0.0316 µM
[8] = second compound 0.1 µM, first compound 0.1 µM
[9] = second compound 0.316 µM, first compound 0.0316 µM
[10] = second compound 0.316 µM, first compound 0.1 µM
[11] = second compound 1 µM, first compound 0.0316 µM
[12] = second compound 1 µM, first compound 0.1 µM
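Also: spheroids exposed to agents for seven days before the viability read.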

CC(=O)c1c(C)c2cnc(Nc3ccc(N4CCNCC4)cn3)nc2n(C2CCCC2)c1=O + COc1c(OCCCN2CCOCC2)ccc2c3n(c(=NC(=O)c4cnc(N)nc4)nc12)CCN3
IC50 (second compound 0.00316 µM): > 100 nM | IC50 (second compound 0.01 µM): > 100 nM | IC50 (second compound 0.0316 µM): > 100 nM | IC50 (second compound 0.1 µM): > 100 nM | IC50 (second compound 0.316 µM): < 0.316 nM | IC50 (second compound 1 µM): < 0.316 nM | viability, T/C (second compound 0.00316 µM, first compound 0.000316 µM): 91% | viability, T/C (second compound 0.00316 µM, first compound 0.001 µM): 98.3% | viability, T/C (second compound 0.00316 µM, first compound 0.00316 µM): 103% | viability, T/C (second compound 0.00316 µM, first compound 0.01 µM): 101% | viability, T/C [1]: 88.8% | viability, T/C [2]: 94.7% | viability, T/C (second compound 0.01 µM, first compound 0.000316 µM): 93.4% | viability, T/C (second compound 0.01 µM, first compound 0.001 µM): 95.9% | viability, T/C (second compound 0.01 µM, first compound 0.00316 µM): 90.7% | viability, T/C (second compound 0.01 µM, first compound 0.01 µM): 99.3% | viability, T/C [3]: 101% | viability, T/C [4]: 116% | viability, T/C (second compound 0.0316 µM, first compound 0.000316 µM): 103% | viability, T/C (second compound 0.0316 µM, first compound 0.001 µM): 100% | viability, T/C (second compound 0.0316 µM, first compound 0.00316 µM): 99.8% | viability, T/C (second compound 0.0316 µM, first compound 0.01 µM): 99.4% | viability, T/C [5]: 97.9% | viability, T/C [6]: 90.7% | viability, T/C (second compound 0.1 µM, first compound 0.000316 µM): 93.1% | viability, T/C (second compound 0.1 µM, first compound 0.001 µM): 92.7% | viability, T/C (second compound 0.1 µM, first compound 0.00316 µM): 96.1% | viability, T/C (second compound 0.1 µM, first compound 0.01 µM): 85.4% | viability, T/C [7]: 79.4% | viability, T/C [8]: 58.7% | viability, T/C (second compound 0.316 µM, first compound 0.000316 µM): 48.4% | viability, T/C (second compound 0.316 µM, first compound 0.001 µM): 36.3% | viability, T/C (second compound 0.316 µM, first compound 0.00316 µM): 40.9% | viability, T/C (second compound 0.316 µM, first compound 0.01 µM): 31.2% | viability, T/C [9]: 37.7% | viability, T/C [10]: 23.4% | viability, T/C (second compound 1 µM, first compound 0.000316 µM): 28.6% | viability, T/C (second compound 1 µM, first compound 0.001 µM): 20.7% | viability, T/C (second compound 1 µM, first compound 0.00316 µM): 18.9% | viability, T/C (second compound 1 µM, first compound 0.01 µM): 16.8% | viability, T/C [11]: 18.8% | viability, T/C [12]: 18.4%

CNC(=O)c1ccc(N2C(=S)N(c3ccc(C#N)c(C(F)(F)F)c3)C(=O)C2(C)C)cc1F + COc1c(OCCCN2CCOCC2)ccc2c3n(c(=NC(=O)c4cnc(N)nc4)nc12)CCN3
IC50 (second compound 0.00316 µM): > 10000 nM | IC50 (second compound 0.01 µM): > 10000 nM | IC50 (second compound 0.0316 µM): > 10000 nM | IC50 (second compound 0.1 µM): > 10000 nM | IC50 (second compound 0.316 µM): < 31.6 nM | IC50 (second compound 1 µM): < 31.6 nM | viability, T/C [1]: 92.8% | viability, T/C [2]: 92.1% | viability, T/C (second compound 0.00316 µM, first compound 0.316 µM): 95.9% | viability, T/C (second compound 0.00316 µM, first compound 1 µM): 92% | viability, T/C (second compound 0.00316 µM, first compound 3.16 µM): 99% | viability, T/C (second compound 0.00316 µM, first compound 10 µM): 93% | viability, T/C [3]: 98.7% | viability, T/C [4]: 108% | viability, T/C (second compound 0.01 µM, first compound 0.316 µM): 103% | viability, T/C (second compound 0.01 µM, first compound 1 µM): 93.3% | viability, T/C (second compound 0.01 µM, first compound 3.16 µM): 111% | viability, T/C (second compound 0.01 µM, first compound 10 µM): 87% | viability, T/C [5]: 103% | viability, T/C [6]: 98.1% | viability, T/C (second compound 0.0316 µM, first compound 0.316 µM): 99.8% | viability, T/C (second compound 0.0316 µM, first compound 1 µM): 105% | viability, T/C (second compound 0.0316 µM, first compound 3.16 µM): 96.5% | viability, T/C (second compound 0.0316 µM, first compound 10 µM): 89.1% | viability, T/C [7]: 97.4% | viability, T/C [8]: 89.6% | viability, T/C (second compound 0.1 µM, first compound 0.316 µM): 91.5% | viability, T/C (second compound 0.1 µM, first compound 1 µM): 107% | viability, T/C (second compound 0.1 µM, first compound 3.16 µM): 84.6% | viability, T/C (second compound 0.1 µM, first compound 10 µM): 67% | viability, T/C [9]: 50.8% | viability, T/C [10]: 45.3% | viability, T/C (second compound 0.316 µM, first compound 0.316 µM): 38.1% | viability, T/C (second compound 0.316 µM, first compound 1 µM): 43.1% | viability, T/C (second compound 0.316 µM, first compound 3.16 µM): 41.1% | viability, T/C (second compound 0.316 µM, first compound 10 µM): 29.2% | viability, T/C [11]: 21.8% | viability, T/C [12]: 22.5% | viability, T/C (second compound 1 µM, first compound 0.316 µM): 22.8% | viability, T/C (second compound 1 µM, first compound 1 µM): 22% | viability, T/C (second compound 1 µM, first compound 3.16 µM): 25.6% | viability, T/C (second compound 1 µM, first compound 10 µM): 14.4%

Cn1cnc2c(F)c(Nc3ccc(Br)cc3Cl)c(C(=O)NOCCO)cc21 + COc1c(OCCCN2CCOCC2)ccc2c3n(c(=NC(=O)c4cnc(N)nc4)nc12)CCN3
IC50 (second compound 0.00316 µM): 2230 nM | IC50 (second compound 0.01 µM): 1350 nM | IC50 (second compound 0.0316 µM): 810 nM | IC50 (second compound 0.1 µM): 413 nM | IC50 (second compound 0.316 µM): < 9.49 nM | IC50 (second compound 1 µM): < 9.49 nM | viability, T/C (second compound 0.00316 µM, first compound 0.00949 µM): 93.6% | viability, T/C (second compound 0.00316 µM, first compound 0.03 µM): 99.3% | viability, T/C (second compound 0.00316 µM, first compound 0.0949 µM): 91.1% | viability, T/C (second compound 0.00316 µM, first compound 0.3 µM): 83.3% | viability, T/C (second compound 0.00316 µM, first compound 0.949 µM): 72.8% | viability, T/C (second compound 0.00316 µM, first compound 3 µM): 41.9% | viability, T/C (second compound 0.01 µM, first compound 0.00949 µM): 99.3% | viability, T/C (second compound 0.01 µM, first compound 0.03 µM): 95% | viability, T/C (second compound 0.01 µM, first compound 0.0949 µM): 85.4% | viability, T/C (second compound 0.01 µM, first compound 0.3 µM): 86.5% | viability, T/C (second compound 0.01 µM, first compound 0.949 µM): 54.5% | viability, T/C (second compound 0.01 µM, first compound 3 µM): 38.1% | viability, T/C (second compound 0.0316 µM, first compound 0.00949 µM): 99.3% | viability, T/C (second compound 0.0316 µM, first compound 0.03 µM): 94.8% | viability, T/C (second compound 0.0316 µM, first compound 0.0949 µM): 73.7% | viability, T/C (second compound 0.0316 µM, first compound 0.3 µM): 76.3% | viability, T/C (second compound 0.0316 µM, first compound 0.949 µM): 42.5% | viability, T/C (second compound 0.0316 µM, first compound 3 µM): 24.7% | viability, T/C (second compound 0.1 µM, first compound 0.00949 µM): 94% | viability, T/C (second compound 0.1 µM, first compound 0.03 µM): 86.7% | viability, T/C (second compound 0.1 µM, first compound 0.0949 µM): 76.1% | viability, T/C (second compound 0.1 µM, first compound 0.3 µM): 58.6% | viability, T/C (second compound 0.1 µM, first compound 0.949 µM): 30.9% | viability, T/C (second compound 0.1 µM, first compound 3 µM): 13.2% | viability, T/C (second compound 0.316 µM, first compound 0.00949 µM): 37.6% | viability, T/C (second compound 0.316 µM, first compound 0.03 µM): 47.4% | viability, T/C (second compound 0.316 µM, first compound 0.0949 µM): 36.9% | viability, T/C (second compound 0.316 µM, first compound 0.3 µM): 24.9% | viability, T/C (second compound 0.316 µM, first compound 0.949 µM): 11.7% | viability, T/C (second compound 0.316 µM, first compound 3 µM): 1.63% | viability, T/C (second compound 1 µM, first compound 0.00949 µM): 22.2% | viability, T/C (second compound 1 µM, first compound 0.03 µM): 12.8% | viability, T/C (second compound 1 µM, first compound 0.0949 µM): 6.6% | viability, T/C (second compound 1 µM, first compound 0.3 µM): 2.1% | viability, T/C (second compound 1 µM, first compound 0.949 µM): 0.32% | viability, T/C (second compound 1 µM, first compound 3 µM): 0.32%
